Data taken from patent publication US20210198277A1, “AMINE-SUBSTITUTED ARYL OR HETEROARYL COMPOUNDS” (Epizyme, Inc., priority 2016, published 2021).

Biological target: T1, EHMT2 (Homo sapiens, UniProt Q96KQ7)
T1 construct: host or cells: MDA-MB-231
T1 sequence (Q96KQ7 1-1210): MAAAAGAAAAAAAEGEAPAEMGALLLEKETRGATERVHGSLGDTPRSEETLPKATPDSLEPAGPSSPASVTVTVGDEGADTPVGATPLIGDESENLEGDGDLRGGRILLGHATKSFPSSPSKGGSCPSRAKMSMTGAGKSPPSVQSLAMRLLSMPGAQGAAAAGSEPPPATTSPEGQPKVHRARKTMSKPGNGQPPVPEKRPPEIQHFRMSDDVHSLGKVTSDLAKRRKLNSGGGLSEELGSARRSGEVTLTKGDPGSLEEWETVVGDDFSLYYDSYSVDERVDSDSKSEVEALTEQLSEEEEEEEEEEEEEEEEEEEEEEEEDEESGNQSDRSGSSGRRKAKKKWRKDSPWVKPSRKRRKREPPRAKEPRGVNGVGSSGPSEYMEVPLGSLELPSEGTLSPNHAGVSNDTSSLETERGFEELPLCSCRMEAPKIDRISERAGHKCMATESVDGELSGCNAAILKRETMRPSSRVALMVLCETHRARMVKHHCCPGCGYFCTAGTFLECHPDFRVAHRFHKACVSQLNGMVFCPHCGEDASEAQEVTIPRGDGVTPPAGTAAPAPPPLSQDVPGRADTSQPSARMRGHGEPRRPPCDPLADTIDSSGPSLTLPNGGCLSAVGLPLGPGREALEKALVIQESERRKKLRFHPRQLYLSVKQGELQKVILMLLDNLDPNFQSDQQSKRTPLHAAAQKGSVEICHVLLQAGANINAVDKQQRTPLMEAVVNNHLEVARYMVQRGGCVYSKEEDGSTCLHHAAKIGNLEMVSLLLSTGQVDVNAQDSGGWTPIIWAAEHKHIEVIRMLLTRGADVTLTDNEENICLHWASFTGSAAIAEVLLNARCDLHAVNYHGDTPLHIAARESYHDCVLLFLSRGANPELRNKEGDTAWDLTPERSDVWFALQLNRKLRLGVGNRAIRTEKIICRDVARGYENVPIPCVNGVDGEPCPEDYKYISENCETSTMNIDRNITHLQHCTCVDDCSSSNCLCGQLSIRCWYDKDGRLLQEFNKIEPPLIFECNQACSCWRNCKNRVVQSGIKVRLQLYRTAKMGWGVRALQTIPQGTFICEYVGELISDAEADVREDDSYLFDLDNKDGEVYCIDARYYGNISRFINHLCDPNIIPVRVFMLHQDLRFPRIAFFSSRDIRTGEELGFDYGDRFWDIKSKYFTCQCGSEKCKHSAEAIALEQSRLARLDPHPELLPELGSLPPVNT
Assay: MDA-MB-231 H3K9me2 in-cell Western assay (EHMT2 ICW)
Format: cell-based
Details: Table III; MDA-MB-231 H3K9me2 in-cell Western; read-out: EHMT2 ICW (IC50 μM)
How it was run: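 MDA-MB-231 cells (3,000/well) were exposed to compound for 30 min at room temperature and then 48 h at 37 °C, fixed with paraformaldehyde, and stained with anti-H3K9me2 (800 nm) plus DRAQ5 (700 nm). Per-well channel ratios gave percent inhibition, and IC50 came from a four-parameter fit of triplicate wells.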

Row | SMILES | IC50 [µM]
1 | CNc1cc(C)nc(Nc2ccc(OC)c(O[C@H]3C[C@@H](N(C)C)C3)c2)n1 (single isomer, unassigned) [Compound 317, N^2-(3-((1s,3s)-3-(dimethylamino)cyclobutoxy)-4-methoxyphenyl)-N^4,6-dimethylpyrimidine-2,4-diamine] | 1 to 10
2 | CNc1ccnc(Nc2cccc(COCCN3CCCC3)n2)c1 [Compound 267, N^4-methyl-N^2-(6-((2-(pyrrolidin-1-yl)ethoxy)methyl)pyridin-2-yl)pyridine-2,4-diamine] | > 10
3 | CNc1cc(Nc2cccc(COCCN3CCCC3)n2)ccn1 [Compound 268, N^2-methyl-N^4-(6-((2-(pyrrolidin-1-yl)ethoxy)methyl)pyridin-2-yl)pyridine-2,4-diamine] | > 10
4 | CNc1cc(Nc2ccc(OC)c(OCCCN3CCCC3)c2)ncc1F [Compound 272, 5-fluoro-N^2-(4-methoxy-3-(3-(pyrrolidin-1-yl)propoxy)phenyl)-N^4-methylpyridine-2,4-diamine] | 1 to 10
5 | CNc1ccnc(Nc2cccc(N3CCC(N(C)C)C3=O)c2)n1 (stereo not shown) [Compound 275] | > 10
6 | CNc1ccnc(Nc2cccc(OCC(F)CN3CCCC3)c2)n1 (stereo not shown) [Compound 276, N^2-(3-(2-fluoro-3-(pyrrolidin-1-yl)propoxy)phenyl)-N^4-methylpyrimidine-2,4-diamine] | > 10
7 | CNc1ccnc(Nc2cccc(OCC(F)(F)CN3CCCC3)c2)n1 [Compound 277, N^2-(3-(2,2-difluoro-3-(pyrrolidin-1-yl)propoxy)phenyl)-N^4-methylpyrimidine-2,4-diamine] | > 10
8 | COc1ccc(Nc2nccc(NCC3CC(C)(C)NC(C)(C)C3)n2)cc1OCCCN1CCCC1 [Compound 278] | 1 to 10
9 | CNc1ccnc(Nc2ccc(OC)c(OCCCN3CCC4(COC4)C3)c2)n1 [Compound 284] | > 10
10 | CNc1ccnc(Nc2ccc(OC)c(OCCCN3CCC(C(F)(F)F)C3)c2)n1 (stereo not shown) [Compound 285, N^2-(4-methoxy-3-(3-(3-(trifluoromethyl)pyrrolidin-1-yl)propoxy)phenyl)-N^4-methylpyrimidine-2,4-diamine] | > 10
11 | CNc1ccnc(Nc2ccc(OC)c(OCCCN3CCC(O)C3)c2)n1 (stereo not shown) [Compound 286, 1-(3-(2-methoxy-5-((4-(methylamino)pyrimidin-2-yl)amino)phenoxy)propyl)pyrrolidin-3-ol] | 0.1 to 1
12 | CNc1ccnc(Nc2ccc(OC)c(OCC3CCCN3C)c2)n1 (stereo not shown) [Compound 289, N^2-(4-methoxy-3-((1-methylpyrrolidin-2-yl)methoxy)phenyl)-N^4-methylpyrimidine-2,4-diamine] | 0.1 to 1
13 | CNc1ccnc(Nc2ccc(OC)c(OCCCN3CCCC3C)c2)n1 (stereo not shown) [Compound 290, N^2-(4-methoxy-3-(3-(2-methylpyrrolidin-1-yl)propoxy)phenyl)-N^4-methylpyrimidine-2,4-diamine] | 1 to 10
14 | CNc1ccnc(Nc2cccc3oc(CCN(C)C)nc23)n1 [Compound 295] | > 10
15 | CNc1ccnc(Nc2cccc(N3CCC(N)C3)c2)n1 (stereo not shown) [Compound 297] | > 10
16 | CNc1ccnc(Nc2ccc(OC)c(OC[C@@H](O)CN3CCCC3)c2)n1 [Compound 300, (S)-1-(2-methoxy-5-((4-(methylamino)pyrimidin-2-yl)amino)phenoxy)-3-(pyrrolidin-1-yl)propan-2-ol] | 0.1 to 1
17 | COc1cnc(Nc2nccc3[nH]ccc23)cc1OCCCN1CCCC1 [Compound 304] | 0.1 to 1

Now from value to compound:

Row | IC50 [µM] | SMILES
18 | > 10 | CNc1ccnc(Nc2ccc(OC)c(OC[C@@H]3CN(C)C[C@H]3C)c2)n1 (single isomer, unassigned) [Compound 438]
19 | 0.1 to 1 | CNc1ccnc(Nc2ccc(OC)c(OC[C@H]3CN(C)C[C@@H]3C)c2)n1 (single isomer, unassigned) [Compound 439]
20 | 0.1 to 1 | CNc1nc(C2CCN(C)CC2)c2cc(OC)c(OCCCN3CCCC3)cc2n1 [Compound 270]
21 | > 10 | CNc1ccnc(Nc2ccc(OC)c(OCCCN3CC[C@H](F)C3)c2)n1 [Compound 271]
22 | > 10 | CNc1cc(Nc2ccc(OC)c(OCCCN3CCCC3)c2)cc(C(F)(F)F)n1 [Compound 273]
23 | > 10 | CNc1ccnc(Nc2cccc(N3CCC(N)C3=O)c2)n1 (stereo not shown) [Compound 274]
24 | > 10 | CNc1ccnc(Nc2cccc(C(C)OCCN3CCCC3)c2)n1 (stereo not shown) [Compound 279, N^4-methyl-N^2-(3-(1-(2-(pyrrolidin-1-yl)ethoxy)ethyl)phenyl) pyrimidine-2,4-diamine]
25 | 1 to 10 | CCN(CC)CCCOc1cc(Nc2nccc(NC)n2)ccc1OC [Compound 280, N^2-(3-(3-(diethylamino)propoxy)-4-methoxyphenyl)-N^4-methylpyrimidine-2,4-diamine]
26 | > 10 | CNc1ccnc(Nc2ccc(OC)c(OCCCN3CCC(S(C)(=O)=O)C3)c2)n1 (stereo not shown) [Compound 282]
27 | 0.1 to 1 | CNc1ccnc(Nc2ccc(OC)c(OCCCN3CCC(OC)C3)c2)n1 (stereo not shown) [Compound 283, N^2-(4-methoxy-3-(3-(3-methoxypyrrolidin-1-yl)propoxy)phenyl)-N^4-methylpyrimidine-2,4-diamine]
28 | > 10 | CNc1ccnc(Nc2ccc(OC)c(OCCCN3CCC(C#N)C3)c2)n1 (stereo not shown) [Compound 287, 1-(3-(2-methoxy-5-((4-(methylamino)pyrimidin-2-yl)amino)phenoxy)propyl)pyrrolidine-3-carbonitrile]
29 | 1 to 10 | CNc1ccnc(Nc2ccc(OC)c(OCCC3CCCN3C)c2)n1 (stereo not shown) [Compound 288, N^2-(4-methoxy-3-(2-(1-methylpyrrolidin-2-yl)ethoxy)phenyl)-N^4-methylpyrimidine-2,4-diamine]
30 | > 10 | CCNC(=O)c1cc(Nc2nccc(NC)n2)ccn1 [Compound 291, N-ethyl-4-((4-(methylamino)pyrimidin-2-yl)amino)picolinamide]
31 | 1 to 10 | CNc1ccnc(Nc2ccc(OC)c(OCCCN3CCC(C)C3)c2)n1 (stereo not shown) [Compound 293, N^2-(4-methoxy-3-(3-(3-methylpyrrolidin-1-yl)propoxy)phenyl)-N^4-methylpyrimidine-2,4-diamine]
32 | > 10 | CNc1ccnc(Nc2cccc(N3CC(N)CC3=O)c2)n1 (stereo not shown) [Compound 296]
33 | 0.1 to 1 | CNc1ccnc(Nc2ccc(OC)c(OCCCN3CC4CC4C3)c2)n1 (stereo not shown) [Compound 298, N^2-(3-(3-(3-azabicyclo[3.1.0]hexan-3-yl)propoxy)-4-methoxyphenyl)-N^4-methylpyrimidine-2,4-diamine]
34 | 0.1 to 1 | CNc1ccnc(Nc2ccc(OC)c(OC[C@H](O)CN3CCCC3)c2)n1 [Compound 299, (R)-1-(2-methoxy-5-((4-(methylamino)pyrimidin-2-yl)amino)phenoxy)-3-(pyrrolidin-1-yl)propan-2-ol]
35 | > 10 | CNc1cc(C)nc(Nc2cc(F)c(OC)c(OCCCN3CCCC3)c2)n1 [Compound 301, N2-(3-fluoro-4-methoxy-5-(3-(pyrrolidin-1-yl)propoxy)phenyl)-N4,6-dimethylpyrimidine-2,4-diamine]
36 | > 10 | CNc1cc(C)nc(Nc2cc(OCCCN3CCCC3)c(OC)cc2F)n1 [Compound 302, N^2-(2-fluoro-4-methoxy-5-(3-(pyrrolidin-1-yl)propoxy)phenyl)-N^4,6-dimethylpyrimidine-2,4-diamine]
37 | 1 to 10 | CNc1cc(C)nc(Nc2cc(OCCCN3CCCC3)c(OC)cn2)n1 [Compound 303, N^2-(5-methoxy-4-(3-(pyrrolidin-1-yl)propoxy)pyridin-2-yl)-N^4,6-dimethylpyrimidine-2,4-diamine]
38 | 0.1 to 1 | CNc1ccnc(Nc2cc(OCCCN3CCCC3)c(OC)cn2)c1 [Compound 305, N^2-(5-methoxy-4-(3-(pyrrolidin-1-yl)propoxy)pyridin-2-yl)-N^4-methylpyridine-2,4-diamine]
39 | > 10 | CNc1nc(C)cc(Nc2cc(OCCCN3CCCC3)c(OC)cn2)n1 [Compound 306, N^4-(5-methoxy-4-(3-(pyrrolidin-1-yl)propoxy)pyridin-2-yl)-N^2,6-dimethylpyrimidine-2,4-diamine]
40 | 0.1 to 1 | CNc1cc(C)nc(Nc2cc(OCCCN3CCCC3)c(OC)cn2)c1 [Compound 307, N^2-(5-methoxy-4-(3-(pyrrolidin-1-yl)propoxy)pyridin-2-yl)-N^4,6-dimethylpyridine-2,4-diamine]
